Test system: solid tumor cell lines
Assay: 3-day proliferation assay (CellTiter-Glo)
Type: cell-based, human
Details: for IC50: Homo sapiens
Procedure, shortened: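 Growth was measured by CellTiter-Glo relative to untreated (DMSO) controls. EC50 came from 4- or 6-parameter curve fits.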

Cn1ncc(Cl)c1-c1cc(C(=O)N[C@H](CN)Cc2ccc(F)c(F)c2)oc1Cl [GSK2141795]
solid tumor cell lines with EC50<1 µM (178 cell lines, 3 days, CTG): 36%
IC50 (22Rv1, 22Rv1, Prostate): 244 nM
IC50 (647-V, 647V, Bladder): 7560 nM
IC50 (786-0, 786-O, Kidney): 577 nM
IC50 (A 172, A172, Brain): 5700 nM
IC50 (A204, A204, Sarcoma): 1060 nM
IC50 (A549, A549, Lung): 1540 nM
IC50 (A673, A673, Sarcoma): 3400 nM
IC50 (A2780, A2780, Ovary): 2300 nM
IC50 (A-375, A375, Skin): 13800 nM
IC50 (A-427, A427, Lung): 1960 nM
IC50 (ACHN, Kidney): 1480 nM
IC50 (AGS, Stomach): 491 nM
IC50 (BE(2)-C, BE2C, Neuroblastoma): 664 nM
IC50 (BFTC-905, BFTC905, Bladder): 1380 nM
IC50 (BT-20, BT20, Breast): 79 nM
IC50 (BXPC-3, BXPC3, Pancreas): 17200 nM
IC50 (C3A, Liver): 966 nM
IC50 (C32TG, Skin): 537 nM
IC50 (C-33-A, C-33A, Cervix): 238 nM
IC50 (C-41, Cervix): 15500 nM
IC50 (CAL-27, CAL27, Head & Neck): 6590 nM
IC50 (CAL-62, CAL62, Thyroid): 8050 nM
IC50 (CCF-STTG1, CCFSTTG1, Brain): 164 nM
IC50 (CGTH-W-1, CGTHW1, Thyroid): 2100 nM
IC50 (CHL-1, CHL1, Skin): 3040 nM
IC50 (CHP-212, CHP212, Neuroblastoma): 595 nM
IC50 (COLO 205, COLO205, Colon): 3680 nM
IC50 (COLO 320DM, COLO320DM, Colon): 698 nM
IC50 (COLO 704, COLO704, Ovary): 104 nM
IC50 (COR-L23, CORL23, Lung): 5510 nM
IC50 (Calu-3, CALU3, Lung): 850 nM
IC50 (Calu-6, CALU6, Lung): 3720 nM
IC50 (Caov-3, CAOV3, Ovary): 4230 nM
IC50 (Capan-2, Capan2, Pancreas): 4230 nM
IC50 (DBTRG-05MG, DBTRG05MG, Brain): 3690 nM
IC50 (DKMG, Brain): 946 nM
IC50 (DLD-1, DLD1, Colon): 5920 nM
IC50 (DU-145, DU145, Prostate): 3460 nM
IC50 (DU-4475, DU4475, Breast): 1760 nM
IC50 (DoTc2-4510, DoTc24510, Cervix): 1380 nM
IC50 (EFM-19, EFM19, Breast): 49 nM
IC50 (EKVX, Lung): 3910 nM
IC50 (ES2, Ovary): 1750 nM
IC50 (FaDu, Head & Neck): 9180 nM
IC50 (G-401, G401, Head & Neck): 473 nM
IC50 (GCT, Sarcoma): 3200 nM
IC50 (H4, Brain): 1630 nM
IC50 (HCC70, HCC70, Breast): 38 nM
IC50 (HCC1954, HCC1954, Breast): 117 nM
IC50 (HCC 2998, HCC2998, Colon): 1400 nM
IC50 (HCT-116, HCT116, Colon): 3990 nM
IC50 (HMCB, Skin): 2820 nM
IC50 (HN5, Head & Neck): 1990 nM
IC50 (HOS, Sarcoma): 1180 nM
IC50 (HPAF-II, HPAFII, Pancreas): 4330 nM
IC50 (HT3, Cervix): 1450 nM
IC50 (HT-29, HT29, Colon): 1040 nM
IC50 (HT-1080, HT1080, Sarcoma): 3460 nM
IC50 (HUVEC, Normal Endothelial): 3180 nM
IC50 (HeLa, Cervix): 5720 nM
IC50 (Hep3B, Liver): 154 nM
IC50 (Hs746T, Stomach): 1090 nM
IC50 (IGROV-1, IGROV1, Ovary): 21 nM
IC50 (J82, Bladder): 783 nM
IC50 (KATO III, KATOIII, Stomach): 255 nM
IC50 (KHOS-240S, KHOS240S, Sarcoma): 7400 nM
IC50 (KM12, KM12, Colon): 3270 nM
IC50 (KPL-1, KPL1, Breast): 1390 nM
IC50 (KYSE-30, KYSE30, Oesophagus): 3210 nM
IC50 (LNCaP, Prostate): 57 nM
IC50 (LS174T, Colon): 1360 nM
IC50 (LS-1034, LS1034, Colon): 1640 nM
IC50 (M14, Skin): 1880 nM
IC50 (MC-IXC, MCIXC, Neuroblastoma): 282 nM
IC50 (MCF7, MCF7, Breast): 139 nM
IC50 (MCF-10A, MCF10A, Normal Breast): 528 nM
IC50 (MDA-MB-175-VII, MDAMB175-VII, Breast): 86 nM
IC50 (MDA-MB-231, MDAMB231, Breast): 7620 nM
IC50 (MDA-MB-453, MDAMB453, Breast): 474 nM
IC50 (MDA-MB-468, MDAMB468, Breast): 369 nM
IC50 (MES-SA, MESSA, Sarcoma): 342 nM
IC50 (MIA PaCa-2, MiaPaCa, Pancreas): 871 nM
IC50 (NCI-H69, NCIH69, Lung): 648 nM
IC50 (NCI-H82, NCIH82, Lung): 15100 nM
IC50 (NCI-H146, NCIH146, Lung): 7770 nM
IC50 (NCI-H157, NCIH157, Lung): 1340 nM
IC50 (NCI-H187, NCIH187, Lung): 115 nM
IC50 (NCI-H209, NCI-H209, Lung): 853 nM
IC50 (NCI-H226, NCIH226, Lung): 2760 nM
IC50 (NCI-H292, NCIH292, Lung): 2870 nM
IC50 (NCI-H322, NCIH322, Lung): 4710 nM
IC50 (NCI-H358, NCI-H358, Lung): 635 nM
IC50 (NCI-H446, NCIH446, Lung): 256 nM
IC50 (NCI-H460, NCIH460, Lung): 1940 nM
IC50 (NCI-H508, NCIH508, Lung): 159 nM
IC50 (NCI-H520, NCIH520, Lung): 200 nM
IC50 (NCI-H630, NCIH630, Lung): 3080 nM
IC50 (NCI-H661, NCIH661, Lung): 3300 nM
IC50 (NCI-H716, NCIH716, Colon): 1640 nM
IC50 (NCI-H747, NCIH747, Lung): 474 nM
IC50 (NCI-H1563, NCIH1563, Lung): 140 nM
IC50 (NCI-H1792, NCIH1792, Lung): 2840 nM
IC50 (NCI-H2030, NCIH2030, Lung): 3160 nM
IC50 (NCI-H2052, NCIH2052, Lung): 1590 nM
IC50 (NCI-H2081, NCIH2081, Lung): 507 nM
IC50 (NCI-H2122, NCIH2122, Lung): 1910 nM
IC50 (NCI-H2170, NCI-H2170, Lung): 3190 nM
IC50 (NCI-H2228, NCIH2228, Lung): 409 nM
IC50 (NCI-N87, NCIN87, Stomach): 568 nM
IC50 (NCI/ADR-RES, NCIADRRES, Breast): 8010 nM
IC50 (OE19, OE19, Oesophagus): 2280 nM
IC50 (OE21, OE21, Oesophagus): 111 nM
IC50 (OE33, OE33, Oesophagus): 4280 nM
IC50 (OV-90, OV90, Ovary): 2080 nM
IC50 (OVCAR-3, OVCAR3, Ovary): 3150 nM
IC50 (OVCAR-4, OVCAR4, Ovary): 29300 nM
IC50 (OVCAR-5, OVCAR5, Ovary): 5270 nM
IC50 (PANC-1, Panc1, Pancreas): 2220 nM
IC50 (PC3, Prostate): 1390 nM
IC50 (PL45, PL45, Pancreas): 6100 nM
IC50 (Panc 02.03, Panc02.03, Pancreas): 10700 nM
IC50 (RD, Sarcoma): 6290 nM
IC50 (RD-ES, RDES, Sarcoma): 808 nM
IC50 (RKO, Colon): 676 nM
IC50 (SAOS-2, SAOS2, Sarcoma): 2370 nM
IC50 (SCC12, SCC12, Head & Neck): 1290 nM
IC50 (SCC-9, SCC9, Head & Neck): 2390 nM
IC50 (SCC-13, SCC-13, Head & Neck): 23700 nM
IC50 (SCC-15, SCC15, Head & Neck): 1980 nM
IC50 (SCC-25, SCC-25, Head & Neck): 2480 nM
IC50 (SCLC3, Lung): 54 nM
IC50 (SF-295, SF295, Brain): 373 nM
IC50 (SF-539, SF539, Brain): 388 nM
IC50 (SH4, Skin): 5520 nM
IC50 (SHP77, SHP77, Lung): 3100 nM
IC50 (SJRH30, SJRH30, Sarcoma): 284 nM
IC50 (SK-BR-3, SKBR3, Breast): 96 nM
IC50 (SK-LMS-1, SKLMS1, Sarcoma): 5870 nM
IC50 (SK-MEL-1, SKMEL1, Skin): 2500 nM
IC50 (SK-MEL-28, SKMEL28, Skin): 1610 nM
IC50 (SK-MES-1, SKMES-1, Lung): 2180 nM
IC50 (SK-N-AS, SKNAS, Neuroblastoma): 3400 nM
IC50 (SK-OV-3, SKOV3, Ovary): 435 nM
IC50 (SK-UT-1, SKUT1, Sarcoma): 202 nM
IC50 (SKNF1, Neuroblastoma): 239 nM
IC50 (SN12C, Kidney): 11300 nM
IC50 (SNB-75, SNB75, Brain): 449 nM
IC50 (SNU1, SNU1, Stomach): 1420 nM
IC50 (SNU-5, SNU5, Stomach): 7810 nM
IC50 (SNU-16, SNU16, Stomach): 7200 nM
IC50 (SNU-398, SNU398, Liver): 13400 nM
IC50 (SNU-449, SNU449, Liver): 6050 nM
IC50 (SW48, SW48, Colon): 328 nM
IC50 (SW480, SW480, Colon): 10300 nM
IC50 (SW579, SW579, Thyroid): 957 nM
IC50 (SW684, SW684, Sarcoma): 336 nM
IC50 (SW756, SW756, Cervix): 8290 nM
IC50 (SW780, SW780, Bladder): 4960 nM
IC50 (SW872, SW872, Sarcoma): 289 nM
IC50 (SW900, SW900, Lung): 8220 nM
IC50 (SW1088, SW1088, Brain): 532 nM
IC50 (SW1417, SW1417, Colon): 1360 nM
IC50 (SW1783, SW1783, Brain): 182 nM
IC50 (SW1990, SW1990, Pancreas): 9150 nM
IC50 (Skut1B, Sarcoma): 10 nM
IC50 (T47D, T-47D, Breast): 63 nM
IC50 (T84, Colon): 2240 nM
IC50 (TE 381.T, TE381T, Sarcoma): 834 nM
IC50 (TK-10, TK10, Kidney): 3330 nM
IC50 (U20S, Sarcoma): 23200 nM
IC50 (U138-MG, U138MG, Brain): 1160 nM
IC50 (U-87 MG, U87MG, Brain): 3320 nM
IC50 (U-251, U251, Brain): 1220 nM
IC50 (UACC-62, UACC62, Skin): 1230 nM
IC50 (UACC-257, UACC257, Skin): 2990 nM
IC50 (UMUC3, UMUC3, Bladder): 5830 nM
IC50 (YAPC, Pancreas): 10300 nM
IC50 (ZR-75-1, ZR75-1, Breast): 33 nM

— publication PMC4076210, “Discovery of Novel AKT Inhibitors with Enhanced Anti-Tumor Effects in Combination with the MEK Inhibitor” (PLoS ONE, 2014)
